In patent publication US20250304620A1, “ANTIMICROBIAL PEPTIDE AND APPLICATION THEREOF” (priority 2023, published 2025):
Converted amounts (≈) assume the structure as drawn. Marks after values point to notes of the source that are not given here. Non-standard residues stand in square brackets, D forms with d. Residues, ends and D or L forms follow the SMILES beside them. dPhe(4-F) = N[C@H](Cc1ccc(F)cc1)C(=O)O

How the values were obtained:
[1] = system: Escherichia coli ATCC 25922; format: cell-based
Method in brief: (§1)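 CLSI microdilution, serial 2-fold dilutions; MIC read-out; n = 5 parallel repeats.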

[2] = system: Bacillus subtilis ATCC 6633; format: cell-based
Method in brief: as §1

Candida krusei ATCC 6258 = format: cell-based
Method in brief: as §1

[3] = system: Corynebacterium ATCC 7715; format: cell-based
Method in brief: as §1

[4] = system: Salmonella typhimurium ATCC 14028; format: cell-based
Method in brief: as §1

[5] = system: Candida tropicalis ATCC 750; format: cell-based
Method in brief: as §1

[6] = system: Serratia marcescens ATCC 29021; format: cell-based
Method in brief: as §1

[7] = system: Klebsiella pneumoniae ATCC 700603; format: cell-based
Method in brief: as §1

[8] = system: Pseudomonas aeruginosa ATCC 27853; format: cell-based
Method in brief: as §1

Enterococcus ATCC 29212 = format: cell-based
Method in brief: as §1

[9] = system: Trichophyton ATCC MYA-4438; format: cell-based
Method in brief: as §1

[10] = system: Candida albicans ATCC MYA-2876; format: cell-based
Method in brief: as §1

Candida utilis ATCC 9950 = format: cell-based
Method in brief: as §1

[11] = system: Staphylococcus aureus ATCC 25923; format: cell-based
Method in brief: as §1

[12] = system: Candida glabrata ATCC 15126; format: cell-based
Method in brief: as §1

[13] = system: Pseudomonas aeruginosa ATCC 27853; assay: Injectable formulations on mice infected with peritonitis; format: in vivo, ICR mice; conditions: 1 mg/kg via tail vein, twice a day for 3 days, n = 10
Method in brief: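 ICR mice of both sexes (10 per group) infected intraperitoneally with 0.2 mL P. aeruginosa ATCC 27853 at 1×10^9 CFU/mL. Injectable formulations dosed by body weight via tail vein twice daily for 3 days; deaths and survival time recorded over 14 d.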

[14] = system: Staphylococcus aureus (NRS 384); conditions: NRS 384, 3 h
Description: Trypsin (250 U/mg, pH=8.0) and AMPs (LV-1 to LV-30) were mixed in a ratio of 1:10 (w/w) and added to a reaction buffer (0.2 M sodium phosphate, 1 mM CaCl2), pH 7.5), and then incubated at 37° C. for 3 h.

[15] = system: Escherichia coli ATCC 25922; assay: Oral formulations on mice with systemic bacterial infection; format: in vivo, ICR mice; conditions: 1 mg/kg gavage, three times a day for 7 days, n = 10
Method in brief: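 ICR mice of both sexes, 10 per group, infected i.p. with 0.2 mL E. coli ATCC 25922 at 1×10^7 CFU/mL. Compounds gavaged by body weight immediately after infection, three times daily for 7 days; deaths and survival time recorded over 14 d observation.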

[16] = system: Staphylococcus aureus (NRS 384); assay: microbe, parasite or virus in culture; format: cell-based; conditions: NRS 384
Method in brief: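 CLSI broth microdilution with serial twofold dilutions gave MICs against S. aureus NRS 384, with 5 parallel replicates. Levofloxacin and the AMP Cbf-K16 served as positive controls.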

CC(=O)N[C@H](CCCNC(=N)N)C(=O)N[C@H](CCCCN)C(=O)N[C@H](CC(C)C)C(=O)N[C@H](CC(C)C)C(=O)N[C@H](Cc1ccc(F)cc1)C(=O)N[C@H](CCCCN)C(=O)N[C@H](CC(C)C)C(=O)N[C@H](CCCCN)C(=O)N[C@H](Cc1ccc(F)cc1)C(=O)N[C@H](CCCCN)C(=O)N[C@H](CCCNC(=N)N)C(N)=O [LV-5] (Ac-[dR][dK][dL][dL][dPhe(4-F)][dK][dL][dK][dPhe(4-F)][dK][dR]-NH2)
MIC Escherichia coli ATCC 25922 [1]: 4 µg/mL (≈ 2.57 µM) | MIC Bacillus subtilis ATCC 6633 [2]: 4 µg/mL (≈ 2.57 µM) | MIC Candida krusei ATCC 6258 (Candida krusei ATCC 6258): 4 µg/mL (≈ 2.57 µM) | MIC Corynebacterium ATCC 7715 [3]: 4 µg/mL (≈ 2.57 µM) | MIC Salmonella typhimurium ATCC 14028 [4]: 4 µg/mL (≈ 2.57 µM) | MIC Candida tropicalis ATCC 750 [5]: 8 µg/mL (≈ 5.15 µM) | MIC Serratia marcescens ATCC 29021 [6]: 2 µg/mL (≈ 1.29 µM) | MIC Klebsiella pneumoniae ATCC 700603 [7]: 2 µg/mL (≈ 1.29 µM) | MIC Pseudomonas aeruginosa ATCC 27853 [8]: 2 µg/mL (≈ 1.29 µM) | MIC Enterococcus ATCC 29212 (Enterococcus ATCC 29212): 2 µg/mL (≈ 1.29 µM) | MIC Trichophyton ATCC MYA-4438 [9]: 4 µg/mL (≈ 2.57 µM) | MIC Candida albicans ATCC MYA-2876 [10]: 8 µg/mL (≈ 5.15 µM) | MIC Candida utilis ATCC 9950 (Candida utilis ATCC 9950): 16 µg/mL (≈ 10.3 µM) | MIC Staphylococcus aureus ATCC 25923 [11]: 1 µg/mL (≈ 0.644 µM) | MIC Candida glabrata ATCC 15126 [12]: 16 µg/mL (≈ 10.3 µM) | Number of mice that died on each day after infection: day 1 [13]: 1 Mouse | Number of mice that died on each day after infection: day 2 [13]: 1 Mouse | Number of mice that died on each day after infection: day 3 [13]: 1 Mouse | Number of mice that died on each day after infection: day 4 [13]: 0 Mouse | Number of mice that died on each day after infection: day 5 [13]: 1 Mouse | Average survival times (Days) ([13]; observed for 14 d): 9.5*** Days | Trypsin MIC [14]: 1 µg/mL | Number of mice that died on each day after infection: day 4 [15]: 1 Mouse | Number of mice that died on each day after infection: day 5 [15]: 2 Mouse | Number of mice that died on each day after infection: day 6 [15]: 2 Mouse | Number of mice that died on each day after infection: day 7 [15]: 1 Mouse | Number of mice that died on each day after infection: day 8 [15]: 0 Mouse | Average survival times (Days) ([15]; observed for 14 d): 8.9** Days | MIC against Staphylococcus aureus (NRS 384) [16]: 1 µg/mL (≈ 0.644 µM)
